Measured values published in publication PMC12703741, “Light-Activated Metal-Dependent Protein Degradation: A Heterobifunctional Ruthenium(II) Photosensitizer Targeting New Delhi Metallo-β-lactamase 1” (Journal of the American Chemical Society, 2025).
Like-named read-outs stand apart in the source and are kept apart here.

Columns and labels:
E. coli NDM-1 [1] = conditions: 320 μM, 1 h
Procedure: (§1) In parallel, a control set was incubated without compounds for 50 min, followed by incubation with 75 μM meropenem trihydrate for 10 min. Cells were then pelleted, washed, resuspended in water, lysed, and clarified before LC-MS analysis.
(§2) 1.12 LC-MS accumulation assay
(§3) 1.12.1 Bacterial Strains and Growth Conditions:
(§4) Accumulation assay was performed two E. coli K-12 MG1655 strains transfected with pSU18 vector containing NDM-1 expression or an empty vector control. Cell growth was performed in Luria-Bertani (LB) broth (NaCl 10g/L, K2HPO4 6.3 g/L, KH2PO4 1.8 g/L, sodium citrate […]
(§5) 1.12.2 Preparation of Accumulation Assay Samples for LC-MS Analysis:
(§6) Assay was adapted from the work of Geddes et al. and Widya et al.9–11 E. coli MG1655 pSU18 NDM-1 and pSU18 Empty were grown from single colonies at 37 °C with aeration, while shaking at 180 rpm for 18 hours. The overnight suspensions were subcultured (1:100) in fresh LB and incubated to yield an OD600 of 0.55-0.60. The were harvested and pelleted at 3500 × g for 15 minutes at 4 °C. The pellets were washed with Meuller -Hinton II (MHII) broth and pelleted again under the same conditions. The pellets were resuspended in a n adjusted volume of fresh MHII to achieve an OD 600 ≈ 10.0. Shielded from ambient light, cells were incubated with 320 μM of metal complex for 1 hour while shaking at 180 rpm. Separately, another set of cells was incubated under identical conditions without any added metal complex. Cells […]
(§7) incubated with metal complex were maintained incubating under the same conditions for an additional 10 minutes, while the second set of cells was incubated with 75 μM of meropenem trihydrate for 10 minutes. After treatment, 10 μL of each cell suspension was taken and dilution 1:10 PBSA for OD600 viability analysis. A 150 μL aliquot of each cell suspension was layered onto 150 μL of cold silicone oil mixture (1:9, v/v AR20:High temperature silicone oil) and centrifuged at 3500 × g for 1 hour at 4 °C. The aqu eous and oil supernatant were carefully aspirated to isolate the cell pellets, which were resuspended in 50 μL of water and transferred to a fresh microplate. For lysis, a 1:1 (v/v) mixture of acetonitrile and methanol was added to each sample, and the sam ples were freeze thawed at -80 °C for approximately 18 hours.
(§8) Thawed samples were clarified by two rounds of centrifugation at 3500 × g for 1 hour at 4 °C, […]
(§9) External calibration curves were prepared by mixing compound at increasing concentration with extracted cell lysate (prepared in parallel to analyte containing samples) in concentrations […]
(§10) nM were also prepared to assess quantitative accuracy. Samples were submitted to LCMS analysis as biological triplicate using a single calibration curve. […]
(§11) was spiked into each calibration and analyte sampl e as an internal standard.

E. coli empty [2] = conditions: 320 μM, 1 h
Procedure: as §1, §2, §3, §4, §5, §6, §7, §8, §9, §10, §11

[3] = Luminescence lifetime of the excited state; type: physicochemical; conditions: PBS
Text: 1.2.6 Luminescence lifetime
at room temperature with a Horiba Scientific FL-1065 (FluoroLog) using a pulse laser (486
nm) as the excitation source.
Lifetime of excited state (ns)

[4] = 1O2 quantum yield by DPBF photooxidation; type: physicochemical; conditions: oxygenated methanol, 450 nm
Procedure: The 1O2 quantum yields were determined by tracking the photooxidation of 1,3-
fully aerated and exposed to LED irradiation at 450 nm (1 3 mW cm−2).
reaction mixture at 411 nm was recorded at one-second intervals.
cumulative absorbance changes at 411 nm versus cumulative irradiation time.

[5] = Photostability by UV-Vis in PBS; type: physicochemical; conditions: 10 μM, 450 nm
Procedure: Both complexes were stable up to and including 23 J cm^–2 (Figure S5). The lifetime of the excited state is one of the key factors which affect ROS generation. […] To quantify the generation of ^1O2 produced by the complexes, 1,3-diphenylisobenzofuran (DPBF) was used as a ^1O2 scavenger. […]
spectra of both compounds in PBS ( 10 μM) under light irradiation (450 nm, 23 J cm -2 over 240 […]
1.2.4 Electron Paramagnetic Resonance (EPR)
All EPR measurements were performed using a Bruker Magnettech spectrometer (ESR5000), Bruker (Germany), at room temperature. EPR samples were transferred to a 20 μL BLAUBRAND micropipette and spectra were recorded at 9.47 GHz microwave frequency, 2 mW microwave power, 100 kHz modulation frequency and 0.1 mT modulation amplitude. The field was scanned from 331.3 mT to 343.3 mT and a single scan was acquired.

NDM-1 [6] = target: T1, NDM-1 (Klebsiella pneumoniae, UniProt C7C422)
Procedure: 1.4.1 Differential Scanning Fluorimetry (DSF)
DSF was performed using the Applied Biosystems QuantStudio 5 thermal cycler (Thermo
Fisher Scientific). Results were analysed and Tm determined with the Applied Biosystems
Protein Thermal Shift Software v1.4 and Tm values determined by the software. DSF was
conducted in sealed MicroAmp Optical 384-Well Reaction Plates (Thermo Fisher Scientific).
at a temperature ramp rate of 0.03 °C/s. For compound-protein interaction studies, a final
containing 5X SYPRO Orange (Thermo Fisher Scientific), 50 mM HEPES and 5%(v/v)
DMSO-d6. The final reaction volume was 20 µL per well. All DMSO compound stocks used
for DSF experiments were freshly prepared from solid stocks. All DSF measurements were
carried out in triplicate and the Tm reported is the mean value and the error is the standard
deviation. For all compounds tested, a no protein control run was included to see potential
changes in fluorescence resulting from a compound-dye interaction.

NDM-1 [7] = target: T1, NDM-1; remark: listed apart in the source
NDM-1 in E. coli NDM-1 = NDM-1 in E. coli NDM-1 (Klebsiella pneumoniae, UniProt C7C422); conditions: E. coli NDM-1, nitrocefin
Procedure: shaking at 180 rpm for 18 hours. The overnight suspensions were subcultured (1:100) in fresh LB and incubated to yield an OD600 of 0.55-0.60. The were harvested and pelleted at 3500  g for 15 minutes at 4 °C. The pellets were washed with PBS and pelleted again under the same
conditions. The bacteria were then stored as pellets at 4 C until required for the assay and to
be used within 5 hours. To prepare the bacteria fo r the assay, a pellet was resuspended in an
adjusted volume of fresh PBS to achieve an OD600 ≈ 5.0 and then kept at 4 C for 1 hr before
being used. The bacteria were then diluted to OD600 ≈ 2.0 in fresh PBS and used immediately.
inhibitor control, and one row of Bacteria Buffer B (50 µL) which served as a no-bacteria
control (providing five rows in total). Bacteria stock (OD600 ≈ 2.0, 40 µL, final concentration
of bacteria in well = OD600 ≈ 0.8) was added to each well of the first four rows, the plate was
sealed, and the samples then pre-incubated for 60 min under either ‘dark’ or ‘light’ conditions
Under ‘dark’ conditions, the plate was left sealed in a
substrate in well = 100 µM) was conducted manually and then the plate immediately resealed
substrate had been completely consumed. Method conditions are as follows: cycle time = 100

E. coli empty [8] = conditions: dark and light samples equivalent
E. coli NDM-1 [9] = tested on: E. coli NDM-1
Procedure: based screening experiments were performed in biological triplicate, each replicate starting
from a new single colony inoculation. Statistical significance was determined using two-way
ANOVA followed by Sidak’s multiple comparison test, with a single pooled variance.
Concentration (MIC) assay
20% glycerol stocks of E. coli MG1655 pSU18 NDM-1 (E. coli NDM-1) and E. coli MG1655
pSU18 empty (E. coli empty) stored at -80 °C were used to streak nutrient agar plates. After
The MHBII culture growing both E. coli strains contained chloramphenicol
as an antibiotic resistance marker (2 µg/mL, equivalent to ¼ MICE. coli for chloramphenicol =
8 µg/mL). The resulting suspensions were each diluted 100 x (15 µL in 1.5 mL) in MHBII with
chloramphenicol (2 µg/mL), and the resultant suspensions were incubated to OD600 = 0.6-1.2
To generate the two-dimensional drug interaction matrix, four 96-well source plates were
prepared. In Source Plates A1-3, the three analytes were subjected to a two-fold serial dilution
across the rows (A to G), maintaining constant concentrations within each row and achieving
a vertical concentration gradient. In parallel, Source Plate B was prepared by diluting
meropenem in a two-fold series across the Columns (9 to 2), generating a horizontal
concentration gradient across the plate. Equal volumes (1 µL) from one of the source plates A
and source plate B were transferred into a 96-well assay plate to establish the checkerboard
layout with a 50X dilution into MHBII (50 μL total volume).
The prepared bacterial cells were diluted to OD600 = 0.01. Each prepared checkerboard plate
was then inoculated with 50 μL per well of bacterial culture in MHBII with ½ MIC of
chloramphenicol (100 μL total volume per well , final OD600 = 0.005). Control wells were
included to account for drug-free growth, sterility, and single-agent gradient exposures. Dark
For the light condition, the
OD600 was measured on a BMG Labtech CLARIOstar plate reader. The MIC is the first value
at which no growth is seen. All E. coli NDM-1 data were averaged from 3 biological replicates,

RAW264.7 = conditions: RAW
[10] = tested on: seven mammalian cell lines; conditions: panel of seven mammalian cell lines including HepG2
[11] = Chromatographic LogD measurement; conditions: pH 7.4
Procedure: ChromLogD measurements were adapted from a previously reported procedure.3 The reversed
phase HPLC measurements were measured using an Agilent 1100 Series, equipped with an
Eclipse Plus C18 column 4.6 x 50 mm, using a gradient of 50 mM ammonium acetate/CH3CN
0 – 100% over 10 min. The mobile phase was adjusted to pH = 7.4 using concentrated sodium
The retention times (log k’) of seven commercially available compounds which cover the log
D range from -0.02 to 3.18 (theophylline, 5-phenyl-1H-tetrazole, benzimidazole, colchicine,
acetophenone, indole, propiophenone, butyrophenone, and benzophenone) were calculated
using the below equation, where tR is the retention time of the compound and t0 is the column
dead time, measured by injecting uracil (0.853 min).
The average retention times (tR) of two consecutive injections of sample were used to calculate
the log k’ values, which were then used to create the standard curve (Figure S1).

T1 sequence (C7C422 31-270 limits assumed): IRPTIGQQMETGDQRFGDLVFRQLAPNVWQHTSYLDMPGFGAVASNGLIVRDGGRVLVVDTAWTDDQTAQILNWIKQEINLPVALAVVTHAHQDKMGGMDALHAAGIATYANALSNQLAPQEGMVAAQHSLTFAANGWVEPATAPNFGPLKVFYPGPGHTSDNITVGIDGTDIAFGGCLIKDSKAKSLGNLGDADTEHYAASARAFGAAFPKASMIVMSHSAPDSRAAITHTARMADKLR
Chain of NDM-1 in E. coli NDM-1 (C7C422 29-270 limits assumed): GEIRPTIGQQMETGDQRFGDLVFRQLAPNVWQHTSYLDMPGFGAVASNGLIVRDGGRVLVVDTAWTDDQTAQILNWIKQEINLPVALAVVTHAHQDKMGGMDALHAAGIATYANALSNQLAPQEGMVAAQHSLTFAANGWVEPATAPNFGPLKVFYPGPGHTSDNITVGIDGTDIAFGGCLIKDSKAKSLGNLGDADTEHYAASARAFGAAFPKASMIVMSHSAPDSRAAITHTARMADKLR

F[P-](F)(F)(F)(F)F.F[P-](F)(F)(F)(F)F.[Ru+2].c1ccc(-c2ccccn2)nc1.c1ccc(-c2ccccn2)nc1.c1ccc(-n2cnc3c4cccnc4c4ncccc4c32)cc1 [Ru2, [Ru(2,2'-bipyridine)2(1-phenyl-imidazo[4,5,f][1,10]phenanthroline)](PF6)2]
Accumulation (E. coli NDM-1 [1]): 494 nM/OD600
Accumulation (E. coli empty [2]): 405 nM/OD600
Luminescence lifetime of excited state [3]: 463 ns
1O2 quantum yield (ΦΔ) [4]: 0.87
Light dose up to which complex is stable [5]: ≥ 23 J cm^–2
Change in melting temperature (ΔT) of NDM-1 (NDM-1 [6]; compound 4 μM): 0.0 °C
Change in melting temperature (ΔT) of NDM-1 (NDM-1 [6]; compound 16 μM): 0.0 °C
Change in melting temperature (ΔT) of NDM-1 (NDM-1 [6]; compound 63 μM): 0.0 °C
Effect on melting temperature of NDM-1 (NDM-1 [6]; in words): no effect
Fold difference in IC50(light) between Ru1 and untargeted control Ru2 (NDM-1 [7]; 450 nm, 20 J cm^-2): approximately 25 fold
IC50 (NDM-1 [7]; read-out: IC50(light), recombinant NDM-1, nitrocefin, light 450 nm, 20 J cm^-2): 5.6 ± 0.5 µM
IC50(dark) (NDM-1 [7]; recombinant NDM-1, nitrocefin, dark): no inhibition
IC50(dark) (NDM-1 in E. coli NDM-1; dark): no inhibition
IC50(light) (NDM-1 in E. coli NDM-1; light 450 nm, 60 J cm^-2): no inhibition
MIC (E. coli empty [8]): >160 µM
MIC (E. coli NDM-1 [9]; E. coli NDM-1, dark and light samples equivalent): >160 µM
Fold change in Meropenem MIC (E. coli NDM-1 [9]; compound 5 μM, dark): 0 fold
Fold change in Meropenem MIC (E. coli NDM-1 [9]; compound 5 μM, light 450 nm, 60 J cm^-2): 0 fold
Fold change in Meropenem MIC (E. coli NDM-1 [9]; compound 10 μM, dark): 0 fold
Fold change in Meropenem MIC (E. coli NDM-1 [9]; compound 10 μM, light 450 nm, 60 J cm^-2): 0 fold
Fold change in Meropenem MIC (E. coli NDM-1 [9]; compound 20 μM, dark): 0 fold
Fold change in Meropenem MIC (E. coli NDM-1 [9]; compound 20 μM, light 450 nm, 60 J cm^-2): 0 fold
Fold change in Meropenem MIC (E. coli NDM-1 [9]; compound 40 μM, dark): 0 fold
Fold change in Meropenem MIC (E. coli NDM-1 [9]; compound 40 μM, light 450 nm, 60 J cm^-2): 0 fold
Fold change in Meropenem MIC (E. coli NDM-1 [9]; compound 80 μM, dark): 0 fold
Fold change in Meropenem MIC (E. coli NDM-1 [9]; compound 80 μM, light 450 nm, 60 J cm^-2): 0 fold
LD50 (HCT116; HCT116, 24 h): > 50 µM
LD50 (HCT116; HCT116, 48 h): > 50 µM
LD50 (HEK293T; 24 h): > 50 µM
LD50 (HEK293T; 48 h): > 50 µM
LD50 (HaCaT; 24 h): > 50 µM
LD50 (HaCaT; 48 h): > 50 µM
LD50 (HeLa; 24 h): > 50 µM
LD50 (HeLa; 48 h): > 50 µM
LD50 (HepG2; HepG2, 24 h): > 50 µM
LD50 (HepG2; HepG2, 48 h): > 50 µM
LD50 (RAW264.7; 24 h): > 50 µM
LD50 (RAW264.7; 48 h): > 50 µM
LD50 (hTERT RPE-1; RPE1, 24 h): > 50 µM
LD50 (hTERT RPE-1; RPE1, 48 h): > 50 µM
Cytotoxicity (no cytotoxicity up to) [10]: > 50 µM
ChromLogD [11]: 1.21
